{"source": "paper PMC8271926", "about": "“1,3,5-Triazine Nitrogen Mustards with Different Peptide Group as Innovative Candidates for AChE and BACE1 Inhibitors” (Molecules, 2021)", "key": {"BACE1 [1]": {"test_system": "BACE1", "conditions": "Yazdani et al.; cited from earlier work"}, "[2]": {"target": "T1, AChE (from electrophorus electricus) (Electrophorus electricus, UniProt O42275)", "T1 construct": "purchased Sigma-Aldrich C3389", "T1 sequence (O42275 24-633)": "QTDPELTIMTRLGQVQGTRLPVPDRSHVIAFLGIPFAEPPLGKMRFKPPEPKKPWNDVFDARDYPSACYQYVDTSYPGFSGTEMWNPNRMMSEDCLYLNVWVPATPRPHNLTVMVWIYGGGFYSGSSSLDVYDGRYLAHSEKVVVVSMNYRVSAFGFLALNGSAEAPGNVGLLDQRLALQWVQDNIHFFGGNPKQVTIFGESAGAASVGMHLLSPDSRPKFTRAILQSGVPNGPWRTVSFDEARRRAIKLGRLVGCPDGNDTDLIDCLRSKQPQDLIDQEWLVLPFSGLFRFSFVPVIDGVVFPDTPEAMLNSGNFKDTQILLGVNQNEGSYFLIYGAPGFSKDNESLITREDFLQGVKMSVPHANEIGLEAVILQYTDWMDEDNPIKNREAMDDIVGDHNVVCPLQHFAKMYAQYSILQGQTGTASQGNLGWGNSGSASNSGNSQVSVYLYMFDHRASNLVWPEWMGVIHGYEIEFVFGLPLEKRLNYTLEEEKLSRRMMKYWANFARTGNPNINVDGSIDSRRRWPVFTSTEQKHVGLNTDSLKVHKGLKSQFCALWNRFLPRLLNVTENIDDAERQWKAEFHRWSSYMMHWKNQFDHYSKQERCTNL", "experiment": "In vitro AChE inhibition, Ellman's colorimetric method", "format": "biochemical"}, "[3]": {"target": "T2, BACE1 (from equine serum) (Homo sapiens, UniProt P56817)", "T2 construct": "purchased Sigma-Aldrich CS0010", "T2 sequence (P56817 46-457 limits assumed)": "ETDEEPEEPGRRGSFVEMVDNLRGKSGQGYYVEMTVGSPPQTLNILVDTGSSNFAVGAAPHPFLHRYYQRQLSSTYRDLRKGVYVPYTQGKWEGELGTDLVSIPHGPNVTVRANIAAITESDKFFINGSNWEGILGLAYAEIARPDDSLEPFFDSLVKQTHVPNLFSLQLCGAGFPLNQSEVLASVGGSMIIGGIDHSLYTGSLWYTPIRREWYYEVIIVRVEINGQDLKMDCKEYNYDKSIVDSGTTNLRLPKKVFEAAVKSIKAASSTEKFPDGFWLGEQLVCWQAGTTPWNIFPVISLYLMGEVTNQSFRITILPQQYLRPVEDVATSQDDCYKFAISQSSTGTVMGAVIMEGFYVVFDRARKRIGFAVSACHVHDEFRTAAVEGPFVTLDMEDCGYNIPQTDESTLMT", "experiment": "In vitro BACE1 inhibition, FRET assay", "format": "biochemical"}, "AChE": {"test_system": "AChE", "conditions": "Jameel et al.; read-out: AChE inhibition IC50; cited from earlier work"}, "BACE1 [4]": {"test_system": "BACE1", "conditions": "Iraji et al.; cited from earlier work"}, "BACE-1": {"test_system": "BACE-1", "conditions": "in vitro; cited from earlier work"}, "GSK-3β": {"test_system": "GSK-3β", "conditions": "in vitro; cited from earlier work"}, "[5]": {"conditions": "cell-based assays; cited from earlier work"}, "[6]": {"conditions": "mean ± SD of three independent experiments, read-out: BACE1 IC50"}}, "note": "Read-outs that look alike come from different tables or passages of the source."}
{"molecule": "O=[N+]([O-])c1ccc(Cn2cc(COc3ccc(/C=N/Nc4nnc(-c5ccccc5)c(-c5ccccc5)n4)cc3)nn2)cc1", "note": "[G]", "values": [{"measurement": "IC50", "setting": "BACE1 [1]", "result": "11.4 ± 2.01", "unit": "µM"}]}
{"molecule": "COC(=O)C(C)NC(=O)C(Cc1cn(C(=O)OC(C)(C)C)c2ccccc12)Nc1nc(OC)nc(N2CCN(CCCl)CC2)n1", "note": "(stereo not drawn) [4c, 2-[4-(2-Chloroethyl)Piperazin-1-yl]-4-Methoxy-6-(NH-Trp(Boc)-Ala-OMe)-1,3,5-Triazine]", "values": [{"measurement": "IC50", "setting": "[2]", "result": "0.114 ± 0.012", "unit": "µM"}, {"measurement": "IC50", "setting": "[3]; [6]", "result": "18.1 ± 2.69", "unit": "µM"}]}
{"molecule": "COC(=O)C(C)NC(=O)C(COCc1ccccc1)Nc1nc(OC)nc(N2CCN(CCCl)CC2)n1", "note": "(stereo not drawn) [4d, 2-[4-(2-Chloroethyl)Piperazin-1-yl]-4-Methoxy-6-(NH-Ser (Bn)-Ala -OMe) -1,3,5-Triazine]", "values": [{"measurement": "IC50", "setting": "[2]", "result": "0.387 ± 0.054", "unit": "µM"}, {"measurement": "IC50", "setting": "[3]; [6]", "result": "58.1 ± 9.69", "unit": "µM"}]}
{"molecule": "COC(=O)C(C)NC(=O)C(CCCCNC(=O)OC(C)(C)C)Nc1nc(OC)nc(N2CCN(CCCl)CC2)n1", "note": "(stereo not drawn) [4a, 2-[4-(2-Chloroethyl)Piperazin-1-yl]-4-Methoxy-6-(NH-Lys(Boc)-Ala -OMe)-1,3,5-Triazine]", "values": [{"measurement": "IC50", "setting": "[2]", "result": "0.055 ± 0.001", "unit": "µM"}, {"measurement": "IC50", "setting": "[3]; [6]", "result": "11.1 ± 2.29", "unit": "µM"}]}
{"molecule": "COc1ccc(Nc2nc(Cl)nc(N3CCN(c4cc(C)nc5ccnn45)CC3)n2)cc1", "note": "[D]", "values": [{"measurement": "IC50", "setting": "AChE", "result": 0.092, "unit": "µM"}]}
{"molecule": "Oc1ccc(/C=N/Nc2nnc(-c3cccs3)c(-c3cccs3)n2)c(O)c1", "note": "[H]", "values": [{"measurement": "IC50", "setting": "BACE1 [4]", "result": 0.91, "unit": "µM"}]}
{"molecule": "ClCCN1CCN(c2nc(Nc3ccccc3)nc(N3CCN(CCCl)CC3)n2)CC1", "note": "[A]", "values": [{"measurement": "IC50", "setting": "[2]", "result": "0.051 ± 0.001", "unit": "µM"}, {"measurement": "IC50", "setting": "[3]; [6]", "result": "9 ± 0.22", "unit": "µM"}]}
{"molecule": "COC(=O)C(C)NC(=O)C(C)(C)Nc1nc(OC)nc(N2CCN(CCCl)CC2)n1", "note": "(stereo not drawn) [4e, 2-[4-(2-Chloroethyl)Piperazin-1-yl]-4-Methoxy-6-(NH-Aib-Ala-OMe) -1,3,5 -Triazine]", "values": [{"measurement": "IC50", "setting": "[2]", "result": "0.789 ± 0.031", "unit": "µM"}, {"measurement": "IC50", "setting": "[3]; [6]", "result": "51 ± 7.99", "unit": "µM"}]}
{"molecule": "COC(=O)C(C)NC(=O)C(CC(=O)OC(C)(C)C)Nc1nc(OC)nc(N2CCN(CCCl)CC2)n1", "note": "(stereo not drawn) [4b, 2-[4-(2-Chloroethyl)Piperazin-1-yl]-4-Methoxy-6-(NH-Asp(OtBu)-Ala-OMe)-1,3,5-Triazine]", "values": [{"measurement": "IC50", "setting": "[2]", "result": "0.065 ± 0.002", "unit": "µM"}, {"measurement": "IC50", "setting": "[3]; [6]", "result": "33.8 ± 3.91", "unit": "µM"}]}
{"molecule": "COC(=O)C(C)NC(=O)C(Cc1c[nH]c2ccccc12)Nc1nc(OC)nc(N2CCN(CCCl)CC2)n1", "note": "(stereo not drawn) [4g, 2-[4-(2-Chloroethyl)Piperazin-1-yl]-4-Methoxy-6-(NH-Trp-Ala-OMe)- 1,3,5- Triazine]", "values": [{"measurement": "IC50", "setting": "[2]", "result": "0.122 ± 0.014", "unit": "µM"}, {"measurement": "IC50", "setting": "[3]; [6]", "result": "28.1 ± 3.69", "unit": "µM"}]}
{"molecule": "COC(=O)C(C)NC(=O)C(Cc1cn(S(=O)(=O)c2ccc(C)cc2)cn1)Nc1nc(OC)nc(N2CCN(CCCl)CC2)n1", "note": "(stereo not drawn) [4h, 2-[4-(2-Chloroethyl)Piperazin-1-yl]-4-Methoxy-6-(NH-His(Ts)-Ala-OMe)-1,3,5-Triazine]", "values": [{"measurement": "IC50", "setting": "[2]; read-out: AChE IC50, AChE from electric eel, Ellman's method, mean ± SD of three independent experiments", "result": "0.067 ± 0.003", "unit": "µM"}, {"measurement": "IC50", "setting": "[3]; read-out: BACE1 IC50, mean ± SD of three independent experiments", "result": "14.2 ± 3.45", "unit": "µM"}]}
{"molecule": "Clc1ccc(Cn2cc(COc3ccc(/C=N/Nc4nnc(-c5ccccc5)c(-c5ccccc5)n4)cc3)nn2)cc1", "note": "[F]", "values": [{"measurement": "IC50", "setting": "BACE1 [1]", "result": "8.55 ± 3.37", "unit": "µM"}]}
{"molecule": "NC1=NC(c2ccc(F)cc2)NC(=O)N1", "note": "(stereo not drawn) [E]", "values": [{"measurement": "IC50", "setting": "BACE-1", "result": "18.03 ± 0.01", "unit": "µM"}, {"measurement": "IC50", "setting": "GSK-3β", "result": "14.7 ± 0.78", "unit": "µM"}, {"measurement": "neuroprotective and neurogenic activities", "setting": "[5]", "result": "effective"}, {"measurement": "neurotoxicity", "setting": "[5]", "result": "no neurotoxicity"}]}
{"molecule": "Cc1cccc(Nc2nc(Cl)nc(N3CCN(c4cc(C)nc5ccnn45)CC3)n2)c1", "note": "[C]", "values": [{"measurement": "IC50", "setting": "AChE", "result": 0.065, "unit": "µM"}]}
{"molecule": "COC(=O)C(C)NC(=O)C(CCCNC(=N)N[N+](=O)[O-])Nc1nc(OC)nc(N2CCN(CCCl)CC2)n1", "note": "(stereo not drawn) [4f, 2-[4-(2-Chloroethyl)Piperazin-1-yl]-4-Methoxy-6-(NH-Arg(NO2)-Ala-OMe) -1,3,5-Triazine]", "values": [{"measurement": "IC50", "setting": "[2]", "result": "1.44 ± 0.029", "unit": "µM"}, {"measurement": "IC50", "setting": "[3]; [6]", "result": "52 ± 8.55", "unit": "µM"}]}
